In US3987055A, “Azasteroids compounds and derivatives” (The Board of Regents for the Oklahoma Agricultural & …, priority 1974, dated 1976):
Where “and” joins values, the source holds several entries; their conditions need not be identical. Equal entries are not always repeated.

Experiments:
[1] = system: acid phosphatase, KB and L-M cells; experiment: relative acid phosphatase staining (permeability of lysosomal membrane) of KB and L-M cells; assay type: cell-based, human (KB) and mouse (L-M); settings: control experiment with Triton X-100
L-M cells [2] = experiment: uptake and incorporation of 3H-thymidine, 3H-uridine and 14C-leucine by L-M cells; assay type: cell-based, mouse; settings: 15 μg/ml
Method: ^3 H-Thymidine (10 μCi), or ^3 H-uridine (10 μCi), or ^14 C-leucine (5 .rho.Ci), was added to suspension cultures of L-M cells (8 × 10^5; /ml) in McCoy's 5a modified medium containing either 0 or 15 μg/ml of compound 5c. The cells were incubated at 37° C. One ml samples were removed at varying intervals and the rates of uptake and incorporation were determined from the liner portion of radioactivity versus time curves.

L-M cells [3] = experiment: growth inhibition of mouse L-M cell line; assay type: cell-based
Method: Cells (1 × 10^5 /ml) were added to the "incubated" compound-containing medium.

KB cells [4] = experiment: growth inhibition of human tumor KB cell line; assay type: cell-based; settings: 10 μg/ml or greater, read-out: concentration at which growth was inhibited
Method: For example, growth of both the human tumor KB* and the mouse L-M** cell lines was inhibited when the cells were grown in media containing 10 μg/ml or greater

KB cells [5] = experiment: colony and cell morphology of KB cells; assay type: cell-based, human; settings: 10 and 20 μg/ml
Method: Differences in cell morphology were also observed. […] Since the difference in staining density could be the result of modification of intracellular structures, such as lysosomes, experiments were performed to determine the effect of the compounds on the permeability of lysosomal membrane.

KB cells [6] = experiment: relative plating efficiency of KB cells (colony formation, 7 days); assay type: cell-based, human
Method: The KB cells were plated in plastic tissue culture dishes and grown in a 5% CO2 gas phase incubator for 7 days. The medium was removed, the plates washed with Hanks' salt solution and the cells stained with a 0.5% aqueous crystal violet solution, rinsed and dried. The colonies were counted and the relative plating efficiency calculated using the number of control colonies as 100 percent.

rat testis tubules [7] = experiment: lysine-U-14C incorporation into protein by rat testis tubules in vitro; assay type: cell-based
Method: (§1) For these investigations the compounds were diluted in a minimal amount of ethanol and further diluted in saline (0.85%) so that the final concentration was 1 mg/ml. The compounds were placed in solution and gassed under N2 and stored at 5° C until used 2 days later for the in vitro incubation studies. Details of the in vitro incubation procedures may be found in Endocrinology 89:791-800 (1971).
The effects of the compounds on the incorporation of lysine -U-^14 C into trichloroacetic (TCA) precipitable protein of rat testes was investigated by incubating about 200 mg of teased testis tubules from mature rats in a 25 ml Erlenmeyer flask containing 3 ml of Krebs Ringer bicarbonate buffer (pH 7.4), L-lysine-U-^14 C (0.5 μCi; 0.1mM), glucose (10 mM) and 0.25 ml of the azasteroid to be tested. The flasks were incubated for 1 hour at 33° C under 95% O2 : 5% CO2 and the TCA precipitable protein was isolated and an aliquot used to measure radioactivity.
CPM = counts per minute. All compounds were tested in a concentration of […]

[8] = system: acid phosphatase, KB and L-M cells; experiment: relative acid phosphatase staining (permeability of lysosomal membrane) of KB and L-M cells; assay type: cell-based, human (KB) and mouse (L-M); parameters: key to Relative acid phosphatase staining: light: cells showing only a few scattered granules; medium: more dense but distinct isolated granules were still detected; heavy: a more intense staining with fewer discrete granules; settings: 20 μg/ml
Method: KB and L-M cells were grown on coverslips in medium 199 with 10% calf serum for the 24 hour growth prior to staining in the presence or absence of compound 5c (20 μg/ml) or compound 5d (20 μg/ml). The cells were washed in Hanks' salt solution, incubated at 37° C in Gomori's substrate solution for 1, 2, or 3 hours, washed, treated with a 1% solution of ammonium sulfide, washed, mounted and observed microscopically. Light staining was designated as cells showing only a few scattered granules; medium staining was more dense but distinct isolated granules were still detected; and heavy staining a more intense staining with fewer discrete granules. Heavy staining denotes increased phosphatase activity.
The acid phosphatase activity was measured in KB and L-M cells grown in medium in the presence or absence compound 5c or 5d (20 μg/ml) for 2 or 24 hours prior to staining (Table 2). Quantitative evaluation of the relative staining intensity of the lysosomes was compared in the treated and untreated cells. […] Thus, cells grown in the presence of compound 5c accumulate the phosphatase substrate within the lysosomes much more rapidly than the control or compound 5d treated cells indicating the compounds ability to alter membrane permeability and thus regulate the accumulation of essential metabolites. Control of this cellular capacity permits regulation of cell division so important in cancer chemotherapy. Since the permeation of the substrate is the rate-limiting step in the phosphatase determination, compound 5c produces a modification of the lysosomal membrane which increased the permeability of the lysosome to the substrate. The results also emphasize the difference in biological activity of compound 5c and 5d type molecules which chemically are similar except at C-3. Differences in the biological activity have been observed when the compounds were tested using various bacteria.

rat testis tubules [9] = experiment: glucose oxidation (glucose-U-14C) by rat testis tubules in vitro; assay type: cell-based
Method: as §1
The effects of these compounds on glucose oxidation by testis tubules was examined by incubating about 200 mg of teased testis tubules from mature rats in a 25 ml Erlenmeyer flask containing 3 ml of Krebs Ringer bicarbonate buffer (pH 7.4), D-glucose-U-^14 C (0.5 μCi; 10mM) and 0.25 ml of the azasteroid (1 mg/ml) to be tested. The flasks were incubated for 2 hours at 33° C under 95% O2 :5% CO2. The reaction was terminated by adding 0.25 ml of 5 N H2 SO4. Carbon dioxide was trapped in 0.25 ml of hydroxide of Hyamine. The radioactivity present in the Hyamine was determined by liquid scintillation spectrometry. This table includes a detailed summary of the results obtained and an average for each compound. […] Thus, the compounds have potential for antifertility activity in the control of wild rodent populations and possibly stray animals such as dogs and cats.
CPM = counts per minute. Glucose-U-^14 C activity was 0.5 millicurie.
All compounds were tested in a concentration of 250 mg per flask.

[10] = individual flask, 250 mg per flask (so in the source), 1 hour, 33° C
[11] = individual flask, 250 mg per flask (so in the source), 2 hours, 33° C

Q: Which “induction of synthesis of acid phosphatase” value [1] does the source give for `CC12CCN=C1c1ccc3cc(O)ccc3c1CC2` (stereo not shown) [Compound 5c, 1,10,11,11a-tetrahydro-11a-methyl-2H-naphth[1,2-g]indol-7-ol] here?
A: Its value is “does not induce synthesis of acid phosphatase in the cell”.

Q: And the “uptake of radioactive thymidine, uridine, and leucine” value (L-M cells [2])?
A: Its value is “inhibited”.

Q: What about the “Cell Pool” value (L-M cells [2]; 3H-thymidine) of the same compound?
A: Its value is 700 Cpm/8×10^5 cells/hr.

Q: And the Rate of incorporation (L-M cells [2]; 3H-thymidine)?
A: The Rate of incorporation was 1,300 Cpm/8×10^5 cells/hr.

Q: What about the Rate of uptake (L-M cells [2]; 3H-thymidine) of the same compound?
A: The Rate of uptake was 2,000 Cpm/8×10^5 cells/hr.

Q: And the “Cell Pool” value (L-M cells [2]; 3H-uridine)?
A: Its value is 1,600 Cpm/8×10^5 cells/hr.

Q: What about the Rate of incorporation (L-M cells [2]; 3H-uridine) of the same compound?
A: The Rate of incorporation was 1,400 Cpm/8×10^5 cells/hr.

Q: And the Rate of uptake (L-M cells [2]; 3H-uridine)?
A: Its Rate of uptake is 3,000 Cpm/8×10^5 cells/hr.

Q: What about the “Cell Pool” value (L-M cells [2]; 14C-leucine) of the same compound?
A: The value was 1,200 Cpm/8×10^5 cells/hr.

Q: And the Rate of incorporation (L-M cells [2]; 14C-leucine)?
A: The Rate of incorporation was 2,800 Cpm/8×10^5 cells/hr.

Q: What about the Rate of uptake (L-M cells [2]; 14C-leucine) of the same compound?
A: The Rate of uptake was 4,000 Cpm/8×10^5 cells/hr.

Q: And the inhibition at 15 µg/mL (L-M cells [2]; Mus musculus, read-out: reduction of radioactivity present in the pool for each of the precursors)?
A: Its inhibition at 15 µg/mL is ~66%.

Q: What about the “growth rate versus control” value (L-M cells [3]; 1 μg/ml) of the same compound?
A: The value was “same growth rate as the control”.

Q: And the “growth inhibition at 20 μg/ml” value (L-M cells [3]; 20 μg/ml)?
A: Its value is “marked inhibition”.

Q: What about the “increase in cell numbers” value (L-M cells [3]; 20 μg/ml, after three days) of the same compound?
A: Its value is “no significant increase in cell numbers”.

Q: And the activity at 10 µg/mL (L-M cells [3]; Mus musculus, 96 h, 10 μg/ml, fourth day, read-out: growth as % of the control)?
A: The activity at 10 µg/mL was 50%.

Q: And the minimal effective concentration (L-M cells [3]; Mus musculus, L-M cells, 10 μg/ml or greater, read-out: concentration at which growth was inhibited)?
A: Its minimal effective concentration is ≥ 10 µg/mL.

Q: And the minimal effective concentration (KB cells [4])?
A: The minimal effective concentration was ≥ 10 µg/mL.

Q: And the cell division (KB cells [5])?
A: Its cell division is “did not divide, or if limited division occurred, only a few small colonies were formed containing a small number of cells”.

Q: And the “density of treated cells” value (KB cells [5])?
A: Its value is “less uniform density with areas of heavy and light staining”.

Q: What about the “position of nuclei in treated cells” value (KB cells [5]) of the same compound?
A: Its value is “located at the periphery of the cell which contained little cytoplasm”.

Q: And the “effect on the relative plating efficiency” value (KB cells [6]; 1 μg/ml)?
A: Its value is “little effect”.

Q: What about the activity at 1 µg/mL (KB cells [6]; Homo sapiens, KB, 168 h, 1 μg/ml) of the same compound?
A: The activity at 1 µg/mL was 91%.

Q: What about the activity at 10 µg/mL (KB cells [6]; Homo sapiens, KB, 168 h, 10 μg/ml) of the same compound?
A: The activity at 10 µg/mL was 38%.

Q: And the cytotoxicity at 10 µg/mL (KB cells [6]; Homo sapiens, KB, 168 h, 10 μg/ml, 7 days, read-out: cells killed)?
A: The cytotoxicity at 10 µg/mL was 62%.

Q: And the activity at 20 µg/mL (KB cells [6]; Homo sapiens, KB, 168 h, 20 μg/ml)?
A: The activity at 20 µg/mL was 17%.

Q: And the cytotoxicity at 20 µg/mL (KB cells [6]; Homo sapiens, KB, 168 h, 20 μg/ml, 7 days, read-out: cells killed)?
A: Its cytotoxicity at 20 µg/mL is 83%.

Q: What about the “AVERAGE OF TWO FLASK lysine incorporation” value (rat testis tubules [7]; average of two flasks) of the same compound?
A: The value was 1,944 CPM/100 mg tissue.

Q: And the “lysine incorporation into protein per 100 mg” value (rat testis tubules [7]; [10])?
A: Its value is 1,616 CPM/100 mg and 2,273 CPM/100 mg.

Q: And the “lysine incorporation into protein per flask” value (rat testis tubules [7]; [10])?
A: The value was 3,325 CPM/FLASK and 4,575 CPM/FLASK.

Q: What about the “Relative acid phosphatase staining” value ([8]; 24 h, 1 hour in substrate) of the same compound?
A: Its value is “light”.

Q: And the “Relative acid phosphatase staining” value ([8]; 24 h, 2 hours in substrate)?
A: The value was “medium”.

Q: And the “Relative acid phosphatase staining” value ([8]; 24 h, 3 hours in substrate)?
A: The value was “heavy”.

Q: And the “staining reaction versus control” value ([8]; 24 h, all three substrate incubation times)?
A: Its value is “more intense staining reaction”.

Q: What about the “staining intensity versus untreated cells” value ([8]; cells treated for 2 hours) of the same compound?
A: Its value is “indistinguishable from untreated cells”.

Q: And the AVERAGE glucose oxidation (rat testis tubules [9]; average of flasks)?
A: Its AVERAGE glucose oxidation is 8,181 CPM/100 mg TISSUE.

Q: And the “depression of glucose oxidation in vitro” value (rat testis tubules [9]; in words)?
A: Its value is “depressed glucose oxidation in vitro more than compounds 4 c and 11b”.

Q: What about the “GLUCOSE OXIDATION per 100 mg” value (rat testis tubules [9]; [11]) of the same compound?
A: Its value is 6,046 CPM/100 mg and 10,317 CPM/100 mg.

Q: What about the “GLUCOSE OXIDATION per flask” value (rat testis tubules [9]; [11]) of the same compound?
A: Its value is 12,450 CPM/FLASK and 21,027 CPM/FLASK.

Q: And the “% DEVIATION FROM CONTROL, glucose oxidation” value (rat testis tubules [9]; versus saline, 120 min)?
A: Its value is “+20.8%”.
